The text below walks through data of US20240109881A1, “Heteroaryl Compounds as Ligand Directed Degraders of IRAK4” (Bristol-Myers Squibb Company, priority 2022, published 2024).

Assay [1] concerns the target T1, IRAK4 (Homo sapiens, UniProt Q9NWZ3).
T1 construct: endogenous in cells; host or cells: THP-1 cells
T1 sequence (Q9NWZ3 1-460): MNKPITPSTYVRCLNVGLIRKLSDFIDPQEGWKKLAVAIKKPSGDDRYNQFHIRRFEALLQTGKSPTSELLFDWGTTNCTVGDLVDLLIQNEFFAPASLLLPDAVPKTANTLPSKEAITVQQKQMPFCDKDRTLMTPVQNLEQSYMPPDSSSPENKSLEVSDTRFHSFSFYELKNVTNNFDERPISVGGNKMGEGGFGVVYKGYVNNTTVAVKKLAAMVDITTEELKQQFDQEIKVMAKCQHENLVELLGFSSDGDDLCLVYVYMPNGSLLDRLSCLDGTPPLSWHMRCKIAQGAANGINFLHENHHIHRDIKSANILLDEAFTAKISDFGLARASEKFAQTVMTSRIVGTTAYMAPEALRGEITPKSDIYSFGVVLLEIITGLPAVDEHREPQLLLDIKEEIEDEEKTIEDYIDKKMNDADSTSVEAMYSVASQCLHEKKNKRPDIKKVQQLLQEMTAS
Briefly: ALE THP1 HTRF (Advanced Lipoxidation End Product THP1 Homogeneous Time Resolved Fluorescence). In kind it is cell-based. Conditions: THP1 cells. How it is done: For Homogenous Time Resolved Fluorescence (HTRF) assays, a Cisbio HTRF kit was used, which included: Lysis Buffer #1 4×, Blocking Reagent #3 100×, 20× Antibody 1 (Anti-IRAK4 d2), 20× Antibody 2 (Anti-IRAK4 k), and Detection Buffer.
4× Lysis Buffer was stored at 4° C. For use as 1× Lysis buffer, the 4× solution was diluted with de-ionized water (distilled water, Gibco Cat. #15230279) and 100× Blocking Reagent in a 1:3:0.04 volume ratio.
20× Antibody Solution aliquots were stored in −80° C. and the Detection Buffer was stored in 4° C. For use as a 1× Antibody Solution, the 20× Antibody Solution aliquot was diluted with Detection Buffer in a 1:19 volume ratio.
Cells were lysed at room temperature for 45 min with shaking. A BCA protein assay was performed and normalization was conducted to the desired total protein concentration with 1× lysis buffer. Next, 1× Antibody Solutions were prepared by adding 380 μL Detection Buffer to 20 μL 20× Antibody Solution aliquots and mixing well. 1× Antibody Solutions were combined 1:1 and briefly vortexed. For control wells, 20 μL 1× anti IRAK4-k Antibody Solution was saved. The 384-well plate (ProxiPlate-384 Plus, Perkin Elmer Cat. #6008289) was loaded by adding 4 μL of the mixed Antibody Solution to empty wells using a single channel repeater. Using a multi-channel repeater, 16 μL lysate was added per well, and any bubbles that were formed were popped with 20 μL pipette tips and Kimwipe edges. In column 10, triplicates of each control was prepared. In wells A10, B10, and C10, buffer control was prepared by adding 16 μL Lysis Buffer and 4 μL Detection Buffer. In wells D10, E10, and F10, cryptate control was prepared by adding 16 μL Lysis Buffer, 2 μL Detection Buffer, and 2 μL 1× anti IRAK4-k Antibody Solution. In wells G10, H10, and I10, a negative control was prepared by adding 16 μL Lysis Buffer and 4 μL mixed Antibody Solution. The plate was sealed with a clear seal and covered with an aluminum lid. The plate was spun down at 800 g for 5 min and incubated in the dark at room temperature overnight. The next day, the plate was spun down at 800 g for 5 min. The samples were analyzed by a plate reader (Envision, PerkinElmer) using the Desnor 384 HTRF program.
In general terms: Time-resolved FRET reads energy transfer from a long-lived donor to a nearby acceptor.

For assay [2], the target named is T1, IRAK4. Description: LVL THP1 HTRF (THP1 Homogeneous Time Resolved Fluorescence). In kind it is cell-based. Conditions: THP1 cells, 18 h incubation with compound; for DC50: read-out: LVL THP1 HTRF EC50. In outline:
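IRAK4 HTRF read-out (665/615 nm ratio, anti-IRAK4 d2 acceptor and K donor, 18 h dark incubation at room temperature) on lysates of THP-1 cells. Cells were treated 18 h at 37° C. with 20 nL compound in DMSO, in colorless RPMI with 10% FBS, with a duplicate CTG plate.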

Turning to `N#Cc1cnc2c(cnn2-c2cc(NC3CC3)c(C(=O)N[C@H]3CC[C@H]([C@@H]4C[C@H]4N4CCN(c5ccc(C6CCC(=O)NC6=O)cc5)CC4)CC3)cn2)c1` (relative stereo) [P-111], at IRAK4 [1], the “ALE THP1 HTRF YMIN” value is given as 15.6% and the half-maximal effective concentration (EC50) (commonly the concentration giving half of the maximal effect) stood at 24 nM.

Consider `CC1(c2ccc(N3CCN(CCC4CCC(NC(=O)c5cnc(-n6ncc7cc(C#N)cnc76)cc5NC5CC5)CC4)CC3)cc2)CCC(=O)NC1=O` (single isomer, unassigned) [P-94], for which, at IRAK4 [1], the “ALE THP1 HTRF YMIN” value was determined as 7.4% and the EC50 amounted to 11 nM.

Consider `N#Cc1cnc2c(cnn2-c2cc(NC3CC3)c(C(=O)N[C@H]3CC[C@H](C4C[C@@H]4N4CCN(c5ccc(C6CCC(=O)NC6=O)cc5)CC4)CC3)cn2)c1` (single isomer, unassigned) [P-110], for which, at IRAK4 [1], the “ALE THP1 HTRF YMIN” value was 16.0% and a half-maximal response (EC50) required 19 nM.

`N#Cc1cnc2c(cnn2-c2cc(NC3CC3)c(C(=O)N[C@H]3CC[C@H](CCN4CCC(c5ccc(C6(F)CCC(=O)NC6=O)cc5)CC4)CC3)cn2)c1` (single isomer, unassigned) [P-125]: on IRAK4 [1], the “ALE THP1 HTRF YMIN” value was 9.8% and the midpoint of the response, the EC50, lay at 10 nM.

Regarding `N#Cc1cnc2c(cnn2-c2cc(NC3CC3)c(C(=O)N[C@H]3CC[C@H](CCN4CCC(c5ccc(C6(F)CCC(=O)NC6=O)cc5)CC4)CC3)cn2)c1` (single isomer, unassigned) [P-126], at IRAK4 [1], the “ALE THP1 HTRF YMIN” value worked out at 14.9% and the EC50 was 296 nM.

`C[C@H](C#N)Nc1cc(-n2ncc3cc(C#N)cnc32)ncc1C(=O)N[C@H]1CC[C@H](CCN2CCN(c3ccc(C4CCC(=O)NC4=O)cc3)CC2)CC1` (stereo in doubt) [P-128]: on IRAK4 [1], the “ALE THP1 HTRF YMIN” value came to 14.7% and the half-maximal effective concentration (EC50) turned out to be 47 nM.

Turning to `O=C1CCC(N2C(=O)c3ccc(N4CCN(C(=O)C5CCC(NC(=O)c6cnc(Nc7ccc8ncsc8c7)cc6NC6CCCC6)CC5)CC4)cc3C2=O)C(=O)N1` (centres unmarked) [P-2], at IRAK4 [1], the “ALE THP1 HTRF YMIN” value was 32.7% and the EC50 stood at 97 nM.

Consider `O=C1CCC(N2C(=O)c3ccc(N4CCN(C[C@H]5CC[C@H](NC(=O)c6cnc(Nc7ccc8ncsc8c7)cc6NC6CCCC6)CC5)CC4)cc3C2=O)C(=O)N1` (some centres unmarked) [P-3, 6-(1,3-benzothiazol-6-ylamino)-4-(cyclopentylamino)-N-[4-[[4-[2-(2,6-dioxo-3-piperidyl)-1,3-dioxo-isoindolin-5-yl]piperazin-1-yl]methyl]cyclohexyl]pyridine-3-carboxamide], for which, at IRAK4 [1], the “ALE THP1 HTRF YMIN” value is on record as 35.6% and the concentration for a half-maximal effect (EC50) is 273 nM.

Turning to `CS(=O)(=O)N1CCC(Nc2cc(Nc3ccc4ncsc4c3)ncc2C(=O)NC2CCC(C(=O)N3CCN(c4ccc5c(c4)C(=O)N(C4CCC(=O)NC4=O)C5=O)CC3)CC2)CC1` (centres unmarked) [P-4, 6-(1,3-benzothiazol-6-ylamino)-N-[4-[4-[2-(2,6-dioxo-3-piperidyl)-1,3-dioxo-isoindolin-5-yl]piperazine-1-carbonyl]cyclohexyl]-4-[(1-methylsulfonyl-4-piperidyl)amino]pyridine-3-carboxamide], on IRAK4 [1], the “ALE THP1 HTRF YMIN” value was 35.8% and a half-maximal response (EC50) required 47 nM.

Take `O=C1CCC(N2C(=O)c3ccc(N4CCC(C(=O)NC5CCC(n6cc(-c7cnc(Nc8ccc9ncsc9c8)cc7NC7CCCC7)nn6)CC5)CC4)cc3C2=O)C(=O)N1` (centres unmarked) [P-5]: at IRAK4 [1], the “ALE THP1 HTRF YMIN” value came out at 17.1% and the EC50 was 54 nM.

As for `N#Cc1cnc2c(ccn2-c2cc(NC3CCCC3)c(C(=O)NC3CCC(C(=O)N4CCN(c5ccc6c(c5)C(=O)N(C5CCC(=O)NC5=O)C6=O)CC4)CC3)cn2)c1` (centres unmarked) [P-6], at IRAK4 [1], the “ALE THP1 HTRF YMIN” value was 30.4% and a half-maximal effect (EC50) was put at 18 nM.

As for `O=C1CCC(N2C(=O)c3ccc(N4CCN(C(=O)C5CCC(NC(=O)c6cnc(Nc7ccn8nccc8n7)cc6NC6CCCC6)CC5)CC4)cc3C2=O)C(=O)N1` (centres unmarked) [P-7], on IRAK4 [1], the “ALE THP1 HTRF YMIN” value was 30.8% and a half-maximal response (EC50) required 37 nM.

In the case of `C[C@H]1CN(c2ccc3c(c2)C(=O)N(C2CCC(=O)NC2=O)C3=O)CCN1C(=O)C1CCC(NC(=O)c2cnc(Nc3ccc4ncsc4c3)cc2NC2CCCC2)CC1` (some centres unmarked) [P-8], on IRAK4 [1], the “ALE THP1 HTRF YMIN” value was found to be 40.8% and it took 27 nM to reach a half-maximal effect (EC50).

`O=C1CCC(N2C(=O)c3ccc(N4CCN(C(=O)[C@H]5CC[C@H](n6cc(-c7cnc(Nc8ccc9ncsc9c8)cc7NC7CCCC7)nn6)CC5)CC4)cc3C2=O)C(=O)N1` (some centres unmarked) [P-9]: at IRAK4 [1], the “ALE THP1 HTRF YMIN” value turned out to be 20.0% and the EC50 came to 25 nM.

Take `N#Cc1cnc2c(cnn2-c2cc(NC3CCCC3)c(C(=O)NC3CCC(C(=O)N4CCN(c5ccc6c(c5)C(=O)N(C5CCC(=O)NC5=O)C6)CC4)CC3)cn2)c1` (centres unmarked) [P-10]: on IRAK4 [1], the “ALE THP1 HTRF YMIN” value turned out to be 34.8% and the EC50 is 87 nM.

Regarding `C[C@H](C#N)Nc1cc(-n2ncc3cc(C#N)cnc32)ncc1-n1cc([C@H]2CC[C@H](CCN3C[C@@H](C)N(c4ccc(N5CCC(=O)NC5=O)cc4)C[C@@H]3C)CC2)nn1` [P-483], on IRAK4 [2], the “LVL THP1 HTRF YMIN” value was 3.4% and the DC50 was 11 nM.

In the case of `C[C@H](C#N)Nc1cc(-n2ncc3cc(C#N)cnc32)ncc1C(=O)N[C@H]1CC[C@H](CCN2CC[C@H]3[C@@H]2CCN3c2ccc(N3CCC(=O)NC3=O)c(F)c2)CC1` [P-484], on IRAK4 [2], the “LVL THP1 HTRF YMIN” value was found to be 52.3% and the DC50 worked out at 1000 nM.

Take `C[C@H](C#N)Nc1cc(N2CCc3cc(C#N)cnc32)ncc1-n1cc([C@H]2CC[C@H](CCN3CCN(c4ccc(N5CCC(=O)NC5=O)cc4)CC3)CC2)nn1` [P-486]: on IRAK4 [2], the “LVL THP1 HTRF YMIN” value is listed as 24.9% and the DC50 amounted to 200 nM.

On to `Cc1cc(N2CC[C@H]3[C@@H]2CCN3CC[C@H]2CC[C@H](NC(=O)c3cnc(-n4ncc5cc(C#N)cnc54)cc3N[C@H](C)C#N)CC2)ccc1N1CCC(=O)NC1=O` [P-489], for which, on IRAK4 [2], the “LVL THP1 HTRF YMIN” value was 84.3% and the DC50 was 1000 nM.

With `Cc1cc(N2CC[C@H]3[C@@H]2CCN3CC[C@H]2CC[C@H](NC(=O)c3cnc(-n4ncc5cc(C#N)cnc54)cc3N[C@H](C)C#N)CC2)ccc1N1CCC(=O)NC1=O` [P-490], on IRAK4 [2], the “LVL THP1 HTRF YMIN” value is 81.6% and the DC50 is 1000 nM.

Consider `C[C@H](C#N)Nc1cc(-n2ncc3cc(C#N)cnc32)ncc1-n1cc([C@H]2CC[C@H](CCN3C[C@@H](C)N(c4ccc(N5CCC(=O)NC5=O)cc4)C[C@H]3C)CC2)nn1` [P-496], for which, at IRAK4 [2], the “LVL THP1 HTRF YMIN” value is given as 2.7% and the DC50 was found to be 127 nM.

`C[C@H](C#N)Nc1cc(-n2ncc3cc(C#N)cnc32)ncc1-n1cc([C@H]2CC[C@H](CCN3CCN(c4ccc5c(N6CCC(=O)NC6=O)nn(C)c5c4)[C@H](C)C3)CC2)nn1` [P-498]: on IRAK4 [2], the “LVL THP1 HTRF YMIN” value is −2.8% and the DC50 turned out to be 2 nM.

Turning to `C[C@H](C#N)Nc1cc(-n2ncc3cc(C#N)cnc32)ncc1-n1cc(C2CCC(N3CCN(c4ccc(N5CCC(=O)NC5=O)cc4)CC3)CC2)nn1` (stereo partly drawn) [P-499, 1-(4-(((R)-1-cyanoethyl)amino)-5-(4-(4-(4-(4-(2,4-dioxotetrahydropyrimidin-1(2H)-yl)phenyl)piperazin-1-yl)cyclohexyl)-1H-1,2,3-triazol-1-yl)pyridin-2-yl)-1H-pyrazolo[3,4-b]pyridine-5-carbonitrile], on IRAK4 [2], the “LVL THP1 HTRF YMIN” value is 13.6% and the DC50 is 172 nM.

With `C[C@H](C#N)Nc1cc(-n2ncc3cc(C#N)cnc32)ncc1-c1cn([C@H]2CC[C@H](CCN3CCN(c4ccc(N5CCC(=O)NC5=O)cc4)[C@H](C)C3)CC2)nn1` [P-501], at IRAK4 [2], the “LVL THP1 HTRF YMIN” value is listed as −2.28% and the DC50 was 2.2 nM.

Consider `C[C@H](C#N)Nc1cc(-n2ncc3cc(C#N)cnc32)ncc1-n1cc([C@H]2CC[C@H](CCN3CCN(c4ccc5c(N6CCC(=O)NC6=O)nn(C)c5c4)[C@@H](C)C3)CC2)nn1` [P-502], for which, on IRAK4 [2], the “LVL THP1 HTRF YMIN” value was −0.79% and the DC50 amounted to 1.2 nM.
